ChEMBL document CHEMBL1201862, “PubChem BioAssay data set” (2004)
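Step 1: Grow cells in 96-well plates. Step 2: Expose to compound for 48 hours at 5 concentrations. Step 3: Interpolate endpoints linearly; if unreached, use highest concentration. GI50 marks 50% less growth.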 Activity calls are given as the source filed them. Cut-off read from the data, not from the text of the source: active = GI50 up to about 1.1 µM and inactive = higher.

Assays:
Experiment in all cases: NCI-60 cell line screen, 48 h
TK-10 = system: TK-10
KM-20L2 = system: KM-20L2
LXFL 529 = system: LXFL 529
Malme-3M = system: Malme-3M
MOLT-4 = system: MOLT-4
IGROV-1 = system: IGROV-1
NCI-H522 = system: NCI-H522
NCI-H226 = system: NCI-H226
ACHN = system: ACHN
EKVX = system: EKVX
LOX IMVI = system: LOX IMVI
SK-MEL-2 = system: SK-MEL-2
HL-60 = system: HL-60
SK-OV-3 = system: SK-OV-3
RPMI-8226 = system: RPMI-8226
HCC 2998 = system: HCC 2998
HCT-116 = system: HCT-116
HOP-92 = system: HOP-92
HOP-18 = system: HOP-18
SF-539 = system: SF-539
M19-MEL = system: M19-MEL
NCI-H460 = system: NCI-H460
SR = system: SR
SNB-75 = system: SNB-75
SW-620 = system: SW-620
KM12 = system: KM12
RXF 631 = system: RXF 631
M14 = system: M14
786-0 = system: 786-0
OVCAR-8 = system: OVCAR-8
NCI-H23 = system: NCI-H23
SF-268 = system: SF-268
DMS-273 = system: DMS-273
RXF 393 = system: RXF 393
HOP-62 = system: HOP-62
OVCAR-5 = system: OVCAR-5
XF498 = system: XF498
UO-31 = system: UO-31
OVCAR-3 = system: OVCAR-3
SNB-19 = system: SNB-19
HCT-15 = system: HCT-15
UACC-62 = system: UACC-62
SNB-78 = system: SNB-78
UACC-257 = system: UACC-257
U-251 = system: U-251
SF-295 = system: SF-295
COLO 205 = system: COLO 205
DMS-114 = system: DMS-114
SN12C = system: SN12C
SK-MEL-5 = system: SK-MEL-5
CCRF-CEM = system: CCRF-CEM
K562 = system: K562
HT-29 = system: HT-29
SK-MEL-28 = system: SK-MEL-28

Measured: GI50

COc1cc2c(cc1OC)C(C#N)(Cc1ccccc1)N(C(=O)c1ccccc1)C=C2 (centres undefined)
inactive: TK-10 > 100 µM | KM-20L2 67.3 µM | LXFL 529 39.4 µM | Malme-3M > 100 µM | MOLT-4 32.5 µM | IGROV-1 > 100 µM | NCI-H522 33.9 µM | NCI-H226 63 µM | ACHN 82.8 µM | EKVX 39.6 µM | LOX IMVI > 100 µM | SK-MEL-2 > 100 µM | HL-60 36.4 µM | SK-OV-3 75.3 µM | RPMI-8226 35.5 µM | HCC 2998 > 100 µM | HCT-116 50.9 µM | HOP-92 58.2 µM | HOP-18 > 100 µM | SF-539 > 100 µM | M19-MEL 96.6 µM | NCI-H460 46.3 µM | SR 45.7 µM | SNB-75 70.6 µM | SW-620 81.5 µM | KM12 60.7 µM | RXF 631 45.3 µM | M14 > 100 µM | 786-0 > 100 µM | OVCAR-8 65.8 µM | NCI-H23 75.7 µM | SF-268 > 100 µM | DMS-273 60.7 µM | RXF 393 24.4 µM | HOP-62 51.5 µM | OVCAR-5 > 100 µM | XF498 8.15 µM | UO-31 36 µM | OVCAR-3 > 100 µM | SNB-19 > 100 µM | UACC-62 31.3 µM | SNB-78 > 100 µM | UACC-257 50.6 µM | U-251 > 100 µM | SF-295 > 100 µM | COLO 205 35.2 µM | DMS-114 17.6 µM | SN12C > 100 µM | SK-MEL-5 26 µM | CCRF-CEM 35.6 µM | K562 44.3 µM | HT-29 60.8 µM | SK-MEL-28 > 100 µM
38.8 µM: HCT-15
